According to patent US12325736B2, “Transduced T cells expressing human SSTR2 and application thereof” (Cornell University, priority 2016, dated 2025):
Positions count from the first letter of the chain named. Names may count otherwise.

Columns and labels:
[1] = PET/CT DOTATOC uptake by subcutaneous Jurkat T cell xenografts (0-100% SSTR2+); format: in vivo, NSG mice; settings: NSG (NOD/LtSz Prkdc^scid Il2rg^tm1Wjl/J), mouse, subcutaneous Jurkat tumor xenograft
Experimental: All animal experiments were performed in strict accordance with the recommendations in the Guide for the Care and Use of Laboratory Animals of the National Institutes of Health. This study's animal protocol was approved by the Institutional Laboratory Animal Use and Care Committee of Weill Cornell Medicine. SSTR2 expressing Jurkats were spiked with increasing numbers of non-transduced Jurkats to derive distinct cultures containing defined percentages of SSTR2 expression ranging from 100-0%. For each subcutaneous xenograft, 5×10^6 total cells were resuspended in 100 μl Matrigel Basement Membrane Matrix (Corning) and injected bilaterally into nonobese diabetic (NOD)/LtSz Prkdc^scid I12rg^tm1Wj1/J (NSG) mice (Jackson Laboratory). Measurements of tumor size were made using an external digital caliper. Tumor volume was calculated by using the modified ellipsoid formula 1/2(Length×Width^2). Length was measured as the longer dimension. Each dimensional measurement was rounded to the nearest 0.5 cm.
(§1) Projection data was acquired in a cone-beam geometry with approximately […] steps at 1 degree angular increments. At least 10 million coincidence events were acquired for PET per study using a 250 to 750 keV energy window and a 6 ns timing window. […] To compute DOTATOC uptake by Jurkat tumors, the ellipsoidal ROIs (Amide) were placed to enclose subcutaneous tumors that closely match overall tumor size and shape. For systemic 8505C tumor models, ellipsoids were drawn separately on the left and right sides of lungs to enclose much of five lobes of mouse lungs. The % ID/cm^3 values, computed relative to the counts in a reference tube, can be approximated to a standard uptake value (SUV^61) by dividing % ID/cm^3 by four, assuming injection efficiency of 100% and 25 g of body weight. Visualization and analyses of PET/CT images were performed using Amide (amide.sourceforge.net).

[2] = PET/CT DOTATOC uptake in lungs, 8505C mouse model and controls; format: in vivo, NSG mice; settings: NSG
Experimental: 1×10^6 8505c-FLuc^+GFP^+cells were injected into NSG mice via tail vein. 2-3×10^6 primary human T cells were injected via tail vein 7-15 days after tumor cell injection. Luminescence imaging of tumor xenografts in live mice was performed using a whole body optical imager (In-Vivo Extreme 4MP, Bruker). Mice were first anesthetized with 3% isoflurane at 2 L/min O2 and subsequent to this, maintained at 2% isoflurane at 2 L/min O2. Growth or reduction in tumor burden was estimated by integration of luminescence over the lungs or the entire mouse body. Ex-vivo fluorescence imaging of mouse liver, lungs, spleen and resected tumors were performed using a whole body optical imager (In-Vivo F Pro, Bruker).
as §1

[3] = biological target: SSTR2 (Homo sapiens, UniProt P30874); assay: Octreotide-induced SSTR2 internalization in SSTR2-transduced Jurkat T cells by flow cytometry; format: cell-based; settings: 1 μM octreotide, 30 min, 37° C.
Chain of SSTR2 (P30874 whole entry): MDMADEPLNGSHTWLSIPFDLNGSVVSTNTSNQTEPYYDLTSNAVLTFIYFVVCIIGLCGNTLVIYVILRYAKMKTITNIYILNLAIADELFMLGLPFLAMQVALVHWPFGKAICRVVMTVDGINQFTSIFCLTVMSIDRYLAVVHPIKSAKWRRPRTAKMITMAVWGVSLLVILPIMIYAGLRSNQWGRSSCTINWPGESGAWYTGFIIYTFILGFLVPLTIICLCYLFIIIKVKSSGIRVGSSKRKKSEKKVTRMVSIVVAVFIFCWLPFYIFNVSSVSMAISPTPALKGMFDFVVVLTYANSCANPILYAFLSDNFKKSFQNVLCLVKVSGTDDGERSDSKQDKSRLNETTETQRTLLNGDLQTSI
Experimental: SSTR2-transduced Jurkat T cells were incubated with or without octreotide, 1 μM (Sigma) for 30 min at 37° C. Subsequent internalization of SSTR2 was measured by flow cytometry analysis of SSTR2 expression. […] Values obtained were used for Scatchard analysis to estimate affinity and site density.

[4] = biological target: ICAM-1 (Homo sapiens, UniProt P05362); assay: SPR measurement of LFA-1 I domain affinity to ICAM-1; format: binding
Chain of ICAM-1 (P05362 28-532): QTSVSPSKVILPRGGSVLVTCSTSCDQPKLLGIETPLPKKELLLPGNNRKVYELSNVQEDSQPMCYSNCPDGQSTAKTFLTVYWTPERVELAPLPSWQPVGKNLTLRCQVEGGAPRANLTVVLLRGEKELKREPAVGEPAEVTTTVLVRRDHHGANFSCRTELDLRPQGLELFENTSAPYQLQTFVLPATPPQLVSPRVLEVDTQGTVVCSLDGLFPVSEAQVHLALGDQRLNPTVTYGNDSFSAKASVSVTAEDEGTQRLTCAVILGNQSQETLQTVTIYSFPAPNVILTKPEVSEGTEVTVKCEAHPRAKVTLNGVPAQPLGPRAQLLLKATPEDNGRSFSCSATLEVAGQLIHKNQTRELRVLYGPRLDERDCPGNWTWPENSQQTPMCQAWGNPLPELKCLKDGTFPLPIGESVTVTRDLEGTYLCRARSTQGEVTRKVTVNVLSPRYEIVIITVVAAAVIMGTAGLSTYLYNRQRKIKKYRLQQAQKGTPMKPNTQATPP
Excerpt: Affinity is first measured by surface plasmon resonance (e.g., Biacore) to assess 1.1 binding affinity between I domain and ICAM-1.

**Q.** Which tissue uptake per volume ([1]; Jurkat tumors containing 0% SSTR2+ cells) does the source give for `C[C@@H](O)[C@@H]1NC(=O)[C@H](CCCCN)NC(=O)[C@@H](Cc2c[nH]c3ccccc23)NC(=O)[C@H](Cc2ccc(O)cc2)NC(=O)[C@@H](NC(=O)[C@@H](Cc2ccccc2)NC(=O)CN2CCN(CC(=O)O)CCN(CC(=O)O)CCN(CC(=O)O)CC2)CSSC[C@@H](C(=O)N[C@H](CO)[C@@H](C)O)NC1=O` [DOTATOC, 1,4,7,10-tetraazacyclododecane-N^I,N^II,N^III,N^IIII-tetraacetic acid (D)-Phe^1-Tyr^3-octreotide] here?
**A.** 0.6 to 0.8 %ID/mL

**Q.** What about the tissue uptake per volume ([1]; tumors below 65 mm^3, 0% SSTR2+) of the same molecule?
**A.** 0.44 ± 0.2 %ID/mL

**Q.** And the tissue uptake per volume ([1]; tumors below 65 mm^3, 1% SSTR2+)?
**A.** 0.64 ± 0.4 %ID/mL

**Q.** What about the tissue uptake per volume ([1]; tumors below 65 mm^3, 10% SSTR2+) of the same molecule?
**A.** 0.83 ± 0.5 %ID/mL

**Q.** What about the tissue uptake per volume ([1]; tumors below 65 mm^3, 100% SSTR2+) of the same molecule?
**A.** 3.4 ± 1.7 %ID/mL

**Q.** What about the tissue uptake per volume ([1]; tumors larger than 65 mm^3, 0% SSTR2+) of the same molecule?
**A.** 0.8 ± 0.35 %ID/mL

**Q.** And the tissue uptake per volume ([1]; tumors larger than 65 mm^3, 0.1% SSTR2+)?
**A.** 1.1 ± 0.51 %ID/mL

**Q.** What about the tissue uptake per volume ([1]; tumors larger than 65 mm^3, 1% SSTR2+) of the same molecule?
**A.** 2 ± 0.77 %ID/mL

**Q.** And the tissue uptake per volume ([1]; tumors larger than 65 mm^3, 10% SSTR2+)?
**A.** 2.8 ± 1.1 %ID/mL

**Q.** What about the tissue uptake per volume ([1]; tumors larger than 65 mm^3, 100% SSTR2+) of the same molecule?
**A.** 7.1 ± 2.3 %ID/mL

**Q.** And the tissue uptake per volume ([2]; lungs, DOTATOC uptake in the lungs, mice treated with RR T cells)?
**A.** 1 %ID/mL

**Q.** And the tissue uptake per volume ([2]; lungs, DOTATOC uptake, mice with no tumors infused with SS T cells)?
**A.** 0.7 %ID/mL

**Q.** And the tissue uptake per volume ([2]; thoracic cavity, non-specific DOTATOC uptake in the thoracic cavity, high tumor burden, 23-27 days post-tumor xenograft, no T cells or SS T cells)?
**A.** 1.3 ± 0.5 %ID/mL

**Q.** With `C[C@@H](O)[C@@H]1NC(=O)[C@H](CCCCN)NC(=O)[C@@H](Cc2c[nH]c3ccccc23)NC(=O)[C@H](Cc2ccccc2)NC(=O)[C@@H](NC(=O)[C@H](N)Cc2ccccc2)CSSC[C@@H](C(=O)N[C@H](CO)[C@@H](C)O)NC1=O` [octreotide] as the molecule, how does the “surface expression of SSTR2 (antibody binding)” value [3] read?
**A.** reduced surface expression of SSTR2

B1: F292G: LFA-1 I domain mutant F292G, G128-G311 of SEQ ID NO: 1 (protein, listed as Homo sapiens)
chain: GNVDLVFLFDGSMSLQPDEFQKILDFMKDVMKKLSNTSYQFAAVQFSTSYKTEFDFSDYVKWKDPDALLKHVKHMLLLTNTFGAINYVATEVFREELGARPDATKVLIIITDGEATDSGNIDAAKDIIRYIIGIGKHFQTKESQETLHKFASKPASEFVKILDTGEKLKDLFTELQKKIYVIEG
**Q.** Which Kd ([4]; SPR measurements, I domain to ICAM-1) does the source give for B1 here?
**A.** 100 nM

B2: F265S/F292G (DM): LFA-1 I domain double mutant F265S/F292G, G128-G311 of SEQ ID NO: 1 (protein, listed as Homo sapiens)
chain: B1 chain with F138S
**Q.** Which “affinity higher than the wild-type (WT) I domain” value ([4]; vs WT KD=1.5 mM) does the source give for B2 here?
**A.** approximately 200,000 fold
